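Results reflect a 48-hour exposure of cells in 96-well plates to compound at five concentrations. The concentration for 50% growth inhibition is given as GI50.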 The source made the active and inactive calls. Rule as the data show it: active = GI50 up to about 1.1 µM and inactive = higher.
What was measured:
Test in all cases: DTP human tumour cell line panel, 48 h
BT-549 = test system: BT-549
SN12C = test system: SN12C
SK-MEL-28 = test system: SK-MEL-28
MDA-MB-435 = test system: MDA-MB-435
T47D = test system: T47D
SR = test system: SR
K562 = test system: K562
MDA-N = test system: MDA-N
EKVX = test system: EKVX
IGROV-1 = test system: IGROV-1
LOX IMVI = test system: LOX IMVI
U-251 = test system: U-251
A498 = test system: A498
UACC-62 = test system: UACC-62
RPMI-8226 = test system: RPMI-8226
KM12 = test system: KM12
Hs-578T = test system: Hs-578T
OVCAR-3 = test system: OVCAR-3
SK-MEL-5 = test system: SK-MEL-5

Measured: GI50

CC(=O)OC(=C(C#N)C#N)c1nccnc1C(=O)O
inactive: BT-549 > 100 µM | SN12C > 100 µM | SK-MEL-28 > 100 µM | MDA-MB-435 > 100 µM | T47D > 100 µM | SR > 100 µM | K562 > 100 µM | MDA-N > 100 µM | EKVX > 100 µM | IGROV-1 > 100 µM | LOX IMVI > 100 µM | U-251 > 100 µM | A498 > 100 µM | UACC-62 > 100 µM | RPMI-8226 > 100 µM | KM12 > 100 µM | Hs-578T > 100 µM | OVCAR-3 > 100 µM | SK-MEL-5 > 100 µM

COC(=O)c1ccccc1/C=C1\Cc2cc3c(cc2C1=O)CCC3
inactive: BT-549 > 100 µM | SN12C > 100 µM | SK-MEL-28 > 100 µM | MDA-MB-435 3.89 µM | T47D > 100 µM | SR > 100 µM | MDA-N 3.78 µM | EKVX > 100 µM | IGROV-1 > 100 µM | LOX IMVI > 100 µM | U-251 43 µM | A498 61.2 µM | UACC-62 32.1 µM | RPMI-8226 > 100 µM | KM12 > 100 µM | Hs-578T > 10 µM | OVCAR-3 > 100 µM | SK-MEL-5 > 100 µM

CN(CCCNC(=O)c1nn(-c2ccccc2)c2c1Cc1ccccc1-2)CCCNC(=O)c1nn(-c2ccccc2)c2c1Cc1ccccc1-2
inactive: BT-549 1.56 µM | SN12C 1.76 µM | SK-MEL-28 1.59 µM | MDA-MB-435 1.23 µM | T47D 1.92 µM | MDA-N 1.5 µM | EKVX 1.83 µM | IGROV-1 1.51 µM | LOX IMVI 1.51 µM | U-251 1.7 µM | A498 1.69 µM | UACC-62 1.77 µM | RPMI-8226 1.72 µM | KM12 1.9 µM | Hs-578T 1.25 µM | OVCAR-3 1.71 µM | SK-MEL-5 1.57 µM
active: SR 0.191 µM | K562 0.55 µM

CSc1ncc2c(n1)sc1c(=O)n(-c3ccccc3)cnc12
inactive: BT-549 > 100 µM | SN12C > 100 µM | SK-MEL-28 > 100 µM | MDA-MB-435 > 100 µM | T47D > 100 µM | SR > 100 µM | K562 > 100 µM | MDA-N > 100 µM | IGROV-1 > 100 µM | LOX IMVI > 100 µM | U-251 > 100 µM | A498 > 100 µM | UACC-62 > 100 µM | RPMI-8226 > 100 µM | KM12 > 100 µM | Hs-578T > 100 µM | OVCAR-3 > 100 µM | SK-MEL-5 > 100 µM

O=C(/N=C1/OC(CN2CCOCC2)CN1C(=O)Nc1ccccc1)Nc1ccccc1 (stereo not drawn)
inactive: BT-549 > 100 µM | SN12C > 100 µM | SK-MEL-28 > 100 µM | MDA-MB-435 > 100 µM | T47D 21.4 µM | SR > 100 µM | K562 > 100 µM | MDA-N > 100 µM | EKVX > 100 µM | IGROV-1 > 100 µM | LOX IMVI > 100 µM | U-251 > 100 µM | A498 > 100 µM | UACC-62 > 100 µM | RPMI-8226 > 100 µM | KM12 > 100 µM | Hs-578T > 100 µM | SK-MEL-5 > 100 µM

N#CC(C#N)=C(N)/C(C#N)=C/c1ccc2ccccc2n1
inactive: BT-549 26.5 µM | SN12C 30.1 µM | SK-MEL-28 18.6 µM | MDA-MB-435 30.5 µM | T47D > 100 µM | K562 32.6 µM | MDA-N 32.7 µM | EKVX > 100 µM | IGROV-1 16.9 µM | LOX IMVI 19.3 µM | U-251 > 10 µM | A498 > 100 µM | UACC-62 18.8 µM | RPMI-8226 36.9 µM | KM12 19.5 µM | Hs-578T 21.7 µM | OVCAR-3 13.5 µM | SK-MEL-5 23.8 µM

CC(C)CNP(=O)(NCC(C)C)Oc1ccc(CC(NC(=O)OCc2ccccc2)C(=O)OCc2ccccc2)cc1 (stereo not drawn)
inactive: BT-549 20.7 µM | SN12C 18.8 µM | SK-MEL-28 15.4 µM | MDA-MB-435 10 µM | T47D 13.4 µM | SR 6.17 µM | K562 20 µM | MDA-N 18.8 µM | EKVX 34.8 µM | IGROV-1 35.4 µM | LOX IMVI 16.1 µM | U-251 16.5 µM | A498 22.5 µM | UACC-62 18.5 µM | RPMI-8226 14.5 µM | KM12 18.1 µM | Hs-578T 28.4 µM | OVCAR-3 3.68 µM | SK-MEL-5 20.2 µM

Cn1c2ccc([N+](=O)[O-])cc2c(=O)c2c(O)cc(O)cc21
inactive: BT-549 28.4 µM | SN12C 31.4 µM | SK-MEL-28 > 100 µM | MDA-MB-435 > 100 µM | T47D 45.2 µM | SR 19.2 µM | K562 > 100 µM | MDA-N > 100 µM | EKVX 5.94 µM | IGROV-1 15.5 µM | LOX IMVI 37.1 µM | U-251 15.7 µM | A498 > 100 µM | UACC-62 54.5 µM | RPMI-8226 > 100 µM | KM12 61.1 µM | Hs-578T 27.5 µM | OVCAR-3 52.4 µM | SK-MEL-5 60 µM

CCOc1ccc(/N=N/C2C(=O)N(C(=O)CC(=O)Nc3ccc(Cl)cc3)N=C2C)cc1 (stereo not drawn)
inactive: BT-549 > 100 µM | SN12C > 100 µM | SK-MEL-28 > 100 µM | MDA-MB-435 > 100 µM | T47D > 100 µM | SR > 100 µM | MDA-N > 100 µM | EKVX > 100 µM | IGROV-1 > 100 µM | LOX IMVI > 100 µM | U-251 > 100 µM | A498 > 100 µM | UACC-62 > 100 µM | RPMI-8226 > 100 µM | KM12 > 100 µM | Hs-578T > 100 µM | OVCAR-3 > 100 µM | SK-MEL-5 > 100 µM

CC1=C(C(=O)OCCc2ccc([N+](=O)[O-])cc2)C(c2cccc([N+](=O)[O-])c2)C(C(=O)OC(C)C)=C(C)N1 (stereo not drawn)
inactive: BT-549 2.94 µM | SN12C 11.8 µM | SK-MEL-28 80 µM | MDA-MB-435 4.46 µM | T47D 2.94 µM | SR 3.49 µM | K562 3.52 µM | MDA-N 5.11 µM | EKVX 5.43 µM | IGROV-1 9.53 µM | LOX IMVI 4.72 µM | U-251 5.69 µM | UACC-62 4.48 µM | RPMI-8226 2.88 µM | KM12 6.05 µM | Hs-578T 2.86 µM | OVCAR-3 7.59 µM | SK-MEL-5 2.62 µM

Oc1ccc2ccccc2c1/N=N/c1cccc2ccccc12
inactive: BT-549 > 100 µM | SN12C > 100 µM | MDA-MB-435 > 100 µM | T47D > 100 µM | SR > 100 µM | K562 > 100 µM | MDA-N > 100 µM | EKVX 84.9 µM | IGROV-1 49.9 µM | U-251 50.6 µM | A498 > 100 µM | UACC-62 > 100 µM | KM12 > 100 µM | Hs-578T 21.1 µM | OVCAR-3 > 100 µM | SK-MEL-5 > 100 µM

O=C1OC2c3ccccc3C(=O)C2(c2ccccc2)N1c1ccccc1 (stereo not drawn)
inactive: BT-549 > 200 µM | SN12C > 200 µM | SK-MEL-28 > 200 µM | MDA-MB-435 > 200 µM | T47D 174 µM | K562 139 µM | MDA-N > 200 µM | EKVX > 200 µM | IGROV-1 > 200 µM | LOX IMVI > 200 µM | U-251 > 200 µM | A498 > 200 µM | UACC-62 > 200 µM | RPMI-8226 132 µM | KM12 > 200 µM | Hs-578T > 200 µM | OVCAR-3 > 200 µM | SK-MEL-5 > 200 µM

COc1cc(C(c2ccccc2)N2C(=O)CC[C@H]2C(=O)O)cc(OC)c1OC (stereo partly drawn)
inactive: BT-549 > 100 µM | SN12C > 100 µM | SK-MEL-28 > 100 µM | MDA-MB-435 > 100 µM | T47D > 100 µM | SR > 100 µM | K562 > 100 µM | MDA-N > 100 µM | EKVX > 100 µM | IGROV-1 > 100 µM | LOX IMVI > 100 µM | U-251 > 100 µM | A498 > 100 µM | UACC-62 > 100 µM | RPMI-8226 > 100 µM | KM12 > 100 µM | Hs-578T > 100 µM | OVCAR-3 > 100 µM | SK-MEL-5 > 100 µM

O[C@@]1(c2cccs2)c2cccc(Cl)c2[C@](O)(c2cccs2)c2cccc(Cl)c21
inactive: BT-549 19.2 µM | SN12C 17.9 µM | SK-MEL-28 17.3 µM | MDA-MB-435 17.2 µM | T47D 32.9 µM | K562 25.5 µM | MDA-N 16.8 µM | EKVX 16.8 µM | IGROV-1 16.3 µM | LOX IMVI 16.4 µM | U-251 16.8 µM | A498 12.6 µM | UACC-62 11 µM | RPMI-8226 22 µM | KM12 16.4 µM | Hs-578T 12.8 µM | OVCAR-3 16.3 µM | SK-MEL-5 17.3 µM

CCOC(=O)CNC(=O)C(CSC(=O)N(O)c1ccc(Cl)cc1)NC(=O)CCC(N)C(=O)OCC (stereo not drawn)
inactive: BT-549 > 50 µM | SN12C > 50 µM | SK-MEL-28 24.8 µM | MDA-MB-435 30.1 µM | T47D > 50 µM | SR 43.5 µM | K562 11.8 µM | MDA-N 36 µM | EKVX 12.5 µM | IGROV-1 4.14 µM | LOX IMVI > 50 µM | U-251 > 50 µM | UACC-62 > 50 µM | RPMI-8226 12.1 µM | KM12 12.2 µM | Hs-578T 1.9 µM | OVCAR-3 > 50 µM | SK-MEL-5 > 50 µM
